Experimental data reported in patent US12042481B2, “Use of (1R,5S)-(+)-1-(naphthalen-2-yl)-3-azabicyclo[3.1.0]hexane in the treatment of conditions affected by monoamine neurotransmitters” (priority 2011, dated 2024).

Tests used:
dopamine transporters = assay: Autoradiographic binding of [3H]β-CIT to dopamine transporters in juvenile rat brain after neonatal 6-OHDA lesioning; format: in vivo; settings: for specific binding of [3H]β-CIT to dopamine transporters, 6-OHDA Lesioned: mean ± SEM
Method: (§1) Methods of lesioning neonatal rats with 6-OHDA were carried out as detailed in Zhang et al. (2001). Briefly, on postnatal day 1 (PD 1), male Sprague-Dawley rat pups were randomly assigned to a nursing dam (10/dam). On PD 5, pups receive a subcutaneous injection of 25 mg/kg desipramine hydrochloride to protect noradrenergic neurons, followed in 45 min. by randomly assigned intracisternal injection of vehicle or 6-OHDA hydrobromide (100 μg free base) under hypothermic anesthesia. Pups were returned to nursing dams immediately after the intracranial injections. Locomotor activity was monitored individually for 90 min. in the periadolescent period on PD 25, using a microcomputer controlled infrared photobeam activity monitoring system. Locomotor activity was defined as breaking of consecutive photobeams and the activity accumulated in 5 minute bins. Behavioral testing was conducted in a novel environment (transparent plastic cages containing fresh bedding) within a grid of horizontal infrared beams. Each dose of (1R,5S)-(+)-1-(naphthalen-2-yl)-3-azabicyclo[3.1.0]hexane (1, 3 and 10 mg/kg) or methylphenidate (3 mg/kg) was dissolved in saline and given i.p. immediately prior to testing. The effects of sham versus 6-OHDA lesions on dopamine neurons in rats were quantified as decrements of DA transporters labeled with [31-1]2-(3-carbomethoxy-3-β-[4′-iodophenyl]tropane ([^3H]β-CIT), a selective DA transporter radioligand (Kula et al. 1999). Sections were preincubated (60 min., room temp [RT]) in 50 mM Tris-HCl buffer (pH 7.7) containing 120 mM NaCl and 4 mM MgCl2, then in fresh buffer (60 min) containing 2 nM [3H](3-CIT. Nonspecific binding was defined with 1 μM GBR-12909. Slides were then washed (2×5 min) in ice-cold buffer, dipped in ice-cold water, and air-dried. Radiolabeled slides and calibrated [^3H]standards were exposed to [^3H]sensitive films for 10-14 d at 4° C. Tritium-sensitive Hyperfilms were developed and fixed in Kodak D-19 for 5 min. at RT. Images were quantified with a computer-controlled MCID image analyzer. Brain regions of interest were outlined and their optical density was measured with two sections representing total binding, with two samples representing nonspecific binding. Optical density of sampled regions was measured and the amount of ligand bound within each area was calculated as nCi/mg tissue. Mean values of non-specific binding in each region were subtracted from the mean total binding to determine specific binding, which was converted into fmol/mg of radioligand bound.

[1] = tested on: 6-OHDA-lesioned juvenile rats; assay: Locomotor activity of juvenile rats with neonatal 6-OHDA lesions (model of ADHD); format: in vivo, rat
Method: The behavioral effects of (1R,5S)-(+)-1-(naphthalen-2-yl)-3-azabicyclo[3.1.0]hexane were evaluated in a model of ADHD, which can be simulated in juvenile rates with neonatal 6-hydroxydopamine (6-OHDA) lesions (Davids et al., 2003). In this animal model, the NE neurons are protected from the neurotoxic effects of 6-OHDA by pretreatment with the NE transporter inhibitor desipramine, so the NE system is largely intact and can respond to NE transporter inhibitors (Davids et al., 2002). Furthermore, the 6-OHDA lesions produce learning and memory deficits in learning models including the T maze, and active and passive avoidance tasks (Shaywitz et al., 1978; Wool et al., 1987; Takasuna and Iwasaki, 1996). Performance in these learning and memory models was improved by administration of stimulants (Shaywitz et al., 1978; Wool et al., 1987). Thus, this model incorporates both hyperactivity and learning deficits found in ADHD.
as §1

Compound	% Sham Lesion, binding of [3H]β-CIT (dopamine transporters; lateral caudate-putamen) [%]	specific binding of [3H]β-CIT to dopamine transporters, 6-OHDA Lesioned (dopamine transporters; lateral caudate-putamen) [fmol/mg tissue]	% Sham Lesion, binding of [3H]β-CIT (dopamine transporters; medial caudate-putamen) [%]	specific binding of [3H]β-CIT to dopamine transporters, 6-OHDA Lesioned (dopamine transporters; medial caudate-putamen) [fmol/mg tissue]	% Sham Lesion, binding of [3H]β-CIT (dopamine transporters; nucleus accumbens septi) [%]	specific binding of [3H]β-CIT to dopamine transporters, 6-OHDA Lesioned (dopamine transporters; nucleus accumbens septi) [fmol/mg tissue]	cumulative locomotor score ([1]; 6-OHDA-lesioned rats, PD 25, 90 minute testing period)	fold difference of cumulative locomotor score versus sham-lesioned rats ([1]; PD 25, 90 minute testing period, p<0.001) [fold]	locomotor activity (FIGS. 7A and 7B) ([1]; 6-OHDA-lesioned juvenile rats at PD25, p<0.05 versus vehicle)	time over which locomotor activity was significantly attenuated ([1]; methylphenidate 3 mg/kg i.p., PD 25, 90 min test) [min]
NCCc1cc(O)c(O)cc1O [6-OHDA, 6-hydroxydopamine]	25.7	30.9 ± 2.4	22.2	24.9 ± 3.5	32.2	22.8 ± 1.8	2758±3.0	9		
COC(=O)C(c1ccccc1)C1CCCCN1 (stereo not shown) [methylphenidate, reference compound]									reduced locomotor activity	90
